Where a SMILES comes first, the peptide text is derived from it.
Experiments:
NHDF cells = assay: Procollagen Type I Peptide (PIP) production, EIA of culture supernatant; type: cell-based, Human; conditions: 10 µg/mL (positive control), untreated group = 100
Method: Normal Human Dermal Fibroblasts (NHDF) were obtained from Lonza (Lonza Walkersville, Inc.) and cultured in FBM (Fibroblast Basal Medium) supplemented with 0.1% hFGF-B, insulin, GA-1000, and 2% FBS at 37°C in a 5% CO2 incubator. Subculture was performed every 2 to 3 days.
NHDF cells were seeded at 2.0 × 10^4 cells/well in a 24-well plate and incubated for 24 hours at 37°C in a 5% CO2 incubator. After incubation, the culture medium was replaced with serum-free FBM, and the peptide prepared in the above Example was applied at concentrations of 1-100 µM, followed by incubation for 24 hours. The supernatant from each experimental group was collected, and the amount of procollagen released into the medium was measured. The positive control group was treated with ascorbic acid at a concentration of 0.001 v/v%. Measurement of procollagen levels was performed using a Procollagen Type I Peptide (PIP) EIA Kit (Takara Biomedical Co.) according to the manufacturer's protocol. The quantitative results of procollagen type I peptide production following treatment with the peptide of the Example are shown in Table 3 and Fig. 4.

RAW264.7 cells [1] = assay: Inhibition of nitric oxide (NO) production, Griess reagent, LPS-stimulated macrophages; type: cell-based; conditions: 10 µM (positive control), LPS (1µg/ml), relative to LPS control = 100
Method: (§1) RAW264.7 macrophage cells were obtained from the American Type Culture Collection (ATCC) and cultured in Dulbecco's Modified Eagle's Medium (DMEM) containing 100 units/mL penicillin-streptomycin and 10% (v/v) fetal bovine serum (FBS) at 37°C in a 5% CO2 incubator, and subculture was performed every 2 to 3 days.
RAW264.7 cells were seeded at 1.5 × 10^5 cells/well in a 24-well plate and incubated for 18 hours at 37°C in a 5% CO2 incubator. The cells were then treated with the peptide prepared in the above Example at concentrations of 50-200 µM and incubated for 24 hours. From each experimental group, 100 µL of the supernatant was collected into a 96-well plate, and 100 µL of griess reagent was added. The mixture was allowed to react at room temperature for 10 minutes, and absorbance was measured at 540 nm using a microplate reader. […] The relative levels of NO production following the treatments described in the above Example, based on NO production induced by the stimulant (LPS), are shown in Table 1 and Figure 2 below.

RAW264.7 cells [2] = assay: EZ-cytox cell viability assay in macrophages; type: cell-based; conditions: 10 µM (positive control), LPS (1µg/ml)
Method: as §1
(§2) The EZ-cytox assay is a representative method for measuring cell viability using the principle that water-soluble tetrazolium salts (WSTs) react with dehydrogenases of viable cells to produce a water-soluble orange formazan.
(§3) To evaluate cytotoxicity, RAW264.7 cells were seeded at 1.5 × 10^4 cells/well in a 96-well plate using DMEM supplemented with 10% FBS and incubated for 18 hours at 37°C in a 5% CO2 incubator. The test samples were then applied to the cultured cells. After treatment, EZ-cytox was added to each well and incubated for 30 minutes under the same conditions. Absorbance was measured at 450 nm using a microplate reader. The mean absorbance values of each sample group were compared with the control group to determine cell viability.

[3] = EZ-cytox cell viability assay in macrophages; type: cell-based; conditions: mouse, RAW264.7 macrophage cells, LPS (1µg/ml)
Method: as §1, §2, §3

HaCaT cells = assay: Hyaluronic acid (HA) production, ELISA of culture supernatant; type: cell-based, human; conditions: 10 mM (positive control), untreated group = 100
Method: The HaCaT human keratinocyte cell line was obtained from Cell Line Service GmbH (Germany). The cells were cultured in DMEM containing 1% penicillin-streptomycin and 10% fetal bovine serum (FBS) at 37°C in a 5% CO2 incubator, and subculture was performed every 2 to 3 days.
HaCaT cells were seeded at 1.0 × 10^5 cells/well in a 24-well plate and incubated for 24 hours at 37°C in a 5% CO2 incubator. After incubation, the culture medium was replaced with serum-free DMEM, and the peptide prepared in the above Example was applied at concentrations of 50-200 µM, followed by incubation for 24 hours. The supernatant from each experimental group was collected, and the amount of hyaluronic acid (HA) released into the medium was measured. The positive control group was treated with N-acetylglucosamine at a concentration of 10 mM. Measurement of hyaluronic acid production was conducted using a Hyaluronic Acid ELISA Kit (Cusabio Biotechnology Co., Ltd.) following the manufacturer's protocol.

O=C1O[C@H]([C@@H](O)CO)C(O)=C1O [Asc.A, ascorbic acid]
Procollagen production (%) (NHDF cells): 175.82±3.91%

Cc1ccnc(N)c1 [Example 2-AM, 2-amino-4-methylpyridine]
NO Production (%) (RAW264.7 cells [1]): 10.23±0.55%
Cell viability (%) (RAW264.7 cells [2]): 94.12±1.76%

N[C@@H](Cc1ccc(O)cc1)C(=O)NCC(=O)N[C@@H](CO)C(=O)N[C@@H](CC(=O)O)C(=O)O [Example, YGSD (Tyr-Gly-Ser-Asp)] (H-YGSD-OH)
viability at 50 µM ([3]; 50 µM): 98.1 ± 1.81%
viability at 100 µM ([3]; 100 µM): 99.4 ± 2.02%
viability at 200 µM ([3]; 200 µM): 99.53 ± 0.95%

CC(=O)N[C@H]1C(O)O[C@H](CO)[C@@H](O)[C@@H]1O (stereo partly shown) [NAG, N-acetylglucosamine]
Hyaluronic acid production (%) (HaCaT cells): 121.43±10.37%

Source: patent publication EP4671261A1, “NOVEL PEPTIDE EXHIBITING SKIN CONDITION IMPROVEMENT ACTIVITY AND COSMETIC COMPOSITION CONTAINING SAME” (Daebong LS Co., Ltd., priority 2023, dated 2024)
